Here are results for 27 compounds from patent US10604523B2, “1-aryl-4-methyl-[1,2,4]triazolo[4,3-a]quinoxaline derivatives” (Janssen Pharmaceutica NV, priority 2011, dated 2020).

Like-named read-outs stand apart in the source and are kept apart here.

For experiment [1], the target named is T1, Rat recombinant PDE10A (rPDE10A2) (Rattus norvegicus, UniProt Q9QYJ6).
T1 construct: made in house; host or cells: Sf9 insect cells (baculovirus)
T1 sequence (Q9QYJ6 1-794): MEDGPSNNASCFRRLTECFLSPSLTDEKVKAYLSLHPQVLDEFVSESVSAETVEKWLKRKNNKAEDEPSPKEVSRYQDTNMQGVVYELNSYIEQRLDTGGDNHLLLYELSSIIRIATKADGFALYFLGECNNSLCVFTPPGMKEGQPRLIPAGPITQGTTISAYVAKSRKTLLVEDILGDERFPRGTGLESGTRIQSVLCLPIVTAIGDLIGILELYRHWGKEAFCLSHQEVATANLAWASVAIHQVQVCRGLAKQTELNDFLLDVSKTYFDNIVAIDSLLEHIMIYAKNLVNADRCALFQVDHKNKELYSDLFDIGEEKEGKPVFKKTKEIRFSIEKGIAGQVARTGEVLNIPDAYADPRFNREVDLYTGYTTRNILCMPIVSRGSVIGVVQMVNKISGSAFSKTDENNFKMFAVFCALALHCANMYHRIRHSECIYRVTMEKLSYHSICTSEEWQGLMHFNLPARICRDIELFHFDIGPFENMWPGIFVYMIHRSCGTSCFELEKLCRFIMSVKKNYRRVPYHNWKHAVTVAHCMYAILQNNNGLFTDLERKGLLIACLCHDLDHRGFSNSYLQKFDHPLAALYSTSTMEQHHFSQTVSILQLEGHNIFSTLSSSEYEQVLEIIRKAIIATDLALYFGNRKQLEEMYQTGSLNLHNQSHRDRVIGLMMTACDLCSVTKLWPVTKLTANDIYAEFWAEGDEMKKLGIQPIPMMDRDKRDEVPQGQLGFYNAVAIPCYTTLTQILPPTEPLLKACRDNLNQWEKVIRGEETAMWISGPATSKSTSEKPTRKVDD
Briefly: In vitro assay PDE10A (SPA, 3H-cAMP). In kind it is biochemical. The conditions noted are these: read-out: PIC50 PDE10 (converted).

Experiment [2] concerns Apomorphine-induced agitation. The experiment is described as follows: Reversal of Apomorphine-induced Agitation in Rats (APO). The conditions noted are these: for PO Max effect (cumulative agitation score over 60 min) / SC Max effect (cumulative agitation score over 60 min): apomorphine 1.0 mg/kg i.v.; for PO LAD (lowest active dose) / SC LAD (lowest active dose): lowest dose at which ≥67% tested animals respond; for SC Dose at max effect / SC Max effect (cumulative agitation score over 60 min) / SC LAD (lowest active dose): subcutaneous route. The format is in vivo, rat.
Protocol: Apomorphine (1.0 mg/kg, i.v.)-induced agitation was scored every 5 min over the first hour after injection of apomorphine. The score system was: (3) pronounced, (2) moderate, (1) slight, and (0) absent. […] For the present purpose, the cumulative agitation score over the whole 60-min observation period was used as a measure to describe the maximum effect (Max effect).

Experiment [3] concerns the target T2, Human recombinant PDE2A (hPDE2A) (Homo sapiens, UniProt O00408).
T2 construct: made in house; host or cells: Sf9 insect cells (baculovirus)
The experiment is described as follows: In vitro assay PDE2A (SPA, 3H-cGMP). In kind it is biochemical. The note with it: read-out: pIC50 PDE2 (converted).
Protocol: Tested compounds were dissolved and diluted in 100% DMSO to a concentration 100 fold of the final concentration in the assay. Compound dilutions (0.4 μl) were added in 384 well plates to 20 μl of incubation buffer (50 mM Tris pH 7.8, 8.3 mM MgCl2, 1.7 mM EGTA). 10 μl of hPDE2A enzyme in incubation buffer was added and the reaction was started by addition of 10 μl substrate to a final concentration of 10 μM cGMP and 0.01 μCi ^3H-cGMP. The reaction was incubated for 45 minutes at room temperature. […] After sedimentation of the beads during 30 minutes the radioactivity was measured in a Perkin Elmer Topcount scintillation counter and results were expressed as cpm. For blanc values the enzyme was omitted from the reaction and replaced by incubation buffer. Control values were obtained by addition of a final concentration of 1% DMSO instead of compound.

[4] abbreviates: -log IC50 expressed in mol/L, rPDE10A2, 60 nM cAMP.

T2 sequence (O00408 whole entry): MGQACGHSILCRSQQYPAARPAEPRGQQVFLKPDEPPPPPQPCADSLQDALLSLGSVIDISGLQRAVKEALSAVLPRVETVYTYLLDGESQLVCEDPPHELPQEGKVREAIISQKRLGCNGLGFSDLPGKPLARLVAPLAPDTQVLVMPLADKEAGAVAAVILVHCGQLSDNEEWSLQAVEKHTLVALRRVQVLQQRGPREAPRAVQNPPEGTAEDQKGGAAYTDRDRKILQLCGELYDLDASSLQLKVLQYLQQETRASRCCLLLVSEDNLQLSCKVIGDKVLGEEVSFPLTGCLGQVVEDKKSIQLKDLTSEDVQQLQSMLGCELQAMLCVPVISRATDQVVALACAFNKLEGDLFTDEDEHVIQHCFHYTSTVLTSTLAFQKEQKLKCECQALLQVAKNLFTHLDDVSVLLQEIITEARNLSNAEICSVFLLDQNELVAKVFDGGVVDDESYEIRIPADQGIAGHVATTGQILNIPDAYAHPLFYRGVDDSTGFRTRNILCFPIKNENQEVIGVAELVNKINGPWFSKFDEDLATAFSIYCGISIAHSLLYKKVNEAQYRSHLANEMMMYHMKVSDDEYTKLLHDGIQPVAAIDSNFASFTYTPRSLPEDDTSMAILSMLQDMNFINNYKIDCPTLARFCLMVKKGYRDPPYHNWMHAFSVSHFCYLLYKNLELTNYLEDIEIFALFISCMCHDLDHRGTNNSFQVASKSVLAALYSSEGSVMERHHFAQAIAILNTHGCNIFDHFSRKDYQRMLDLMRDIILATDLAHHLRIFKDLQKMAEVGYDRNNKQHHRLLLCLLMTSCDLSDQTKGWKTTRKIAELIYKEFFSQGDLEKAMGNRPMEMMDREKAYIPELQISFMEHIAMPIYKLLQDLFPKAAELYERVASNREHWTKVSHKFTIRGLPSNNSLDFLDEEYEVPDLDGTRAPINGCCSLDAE

Regarding `CCNC(=O)c1ccc2nc(C)c3nnc(-c4ccccc4OC)n3c2c1` [Compound B-78], the IC50 in experiment [1] is 93.3 nM. In experiment [2], the PO Dose at Max Effect was 10 mg/kg, the “PO Max effect (cumulative agitation score over 60 min)” value is 21 and the PO LAD (lowest active dose) is greater than 10 mg/kg. In experiment [3], the IC50 is 7.59 nM.
In the same order, the values of `Cc1ncccc1-c1nnc2c(C)nc3ccc(Br)cc3n12` [Compound B-131] are 132 nM, 10 mg/kg, 17, 10 mg/kg and 29.5 nM.
`Cc1nc2ccc(C(=O)NCCO)cc2n2c(-c3ccccc3Cl)nnc12` [Compound B-42]: in experiment [1], the IC50 is 29.5 nM. Besides, in experiment [2], the PO Dose at Max Effect turned out to be 10 mg/kg, the “PO Max effect (cumulative agitation score over 60 min)” value stood at 22 and the PO LAD (lowest active dose) was greater than 10 mg/kg. Also, in experiment [3], the IC50 is 1.51 nM.
In the case of `COCC1CN(Cc2ccc3nc(C)c4nnc(-c5ccccc5Cl)n4c3c2)CCO1` (stereo not drawn) [Compound B-75], the IC50 in experiment [1] was 63.1 nM. Also, in experiment [2], the SC Dose at max effect was 10 mg/kg, the “SC Max effect (cumulative agitation score over 60 min)” value amounted to 15 and the SC LAD (lowest active dose) was found to be 2.5 mg/kg. In addition, the IC50 in experiment [3] is 6.92 nM.
For `Cc1nc2ccc(C(O)C(F)(F)F)cc2n2c(-c3ccccc3Cl)nnc12` (stereo not drawn) [Compound B-21, 1-[1-(2-Chlorophenyl)-4-methyl[1,2,4]triazolo[4,3-a]quinoxalin-8-yl]-2,2,2-trifluoroethanol], in experiment [1], the IC50 was 41.7 nM. In addition, in experiment [2], the PO Dose at Max Effect turned out to be 10 mg/kg, the “PO Max effect (cumulative agitation score over 60 min)” value is 24 and the PO LAD (lowest active dose) was greater than 10 mg/kg. Besides, the IC50 in experiment [3] was 6.46 nM.
With `CCNC(=O)c1ccc2nc(C)c3nnc(-c4ccccc4F)n3c2c1` [Compound B-51], the IC50 in experiment [1] (setting [4]) was 155 nM. Further, in experiment [2], the PO Dose at Max Effect amounted to 10 mg/kg, the “PO Max effect (cumulative agitation score over 60 min)” value came out at 21 and the PO LAD (lowest active dose) was greater than 10 mg/kg. For the same compound, the IC50 in experiment [3] was 2.51 nM.
In the case of `Cc1nc2ccc(CN3CCOC(F)(C(F)(F)F)C3)cc2n2c(-c3ccccc3Cl)nnc12` (stereo not drawn) [Compound B-114], the IC50 in experiment [1] was 105 nM. Also, in experiment [2], the PO Dose at Max Effect was 10 mg/kg, the “PO Max effect (cumulative agitation score over 60 min)” value stood at 24 and the PO LAD (lowest active dose) was greater than 10 mg/kg. In addition, the IC50 in experiment [3] is 24.5 nM.
On the same counts, the results for `Cc1nc2ccc(OC(F)(F)F)cc2n2c(-c3ccccc3Cl)nnc12` [Compound B-4a, 1-(2-Chlorophenyl)-4-methyl-8-(trifluoromethoxy)[1,2,4]triazolo[4,3-a]quinoxaline] are 24.5 nM, 10 mg/kg, 21, greater than 10 mg/kg and 8.32 nM.
In the same order, the values of `Cc1ncccc1-c1nnc2c(C)nc3ccc(C(F)(F)F)cc3n12` [Compound B-167] are 263 nM, 10 mg/kg, 19, 10 mg/kg and 95.5 nM.
Take `Cc1nc2ccc(OCCc3ccccn3)cc2n2c(-c3ccccc3Cl)nnc12` [Compound B-15, 1-(2-Chlorophenyl)-4-methyl-8-(2-pyridin-2-ylethoxy) [1,2,4]triazolo[4,3-a]quinoxaline]: the IC50 in experiment [1] was 16.2 nM. In experiment [2], the SC Dose at max effect came to 10 mg/kg, the “SC Max effect (cumulative agitation score over 60 min)” value is 10 and the SC LAD (lowest active dose) came out at 2.5 mg/kg. In addition, in experiment [3], the IC50 was 8.71 nM.
For `Cc1nc2ccc(CNC3CCOCC3)cc2n2c(-c3ccccc3Cl)nnc12` [Compound B-76], the IC50 in experiment [1] was 45.7 nM. Further, in experiment [2], the SC Dose at max effect is 10 mg/kg, the “SC Max effect (cumulative agitation score over 60 min)” value is listed as 16 and the SC LAD (lowest active dose) was determined as 10 mg/kg. The IC50 in experiment [3] is 7.08 nM.
In the case of `Cc1nc2ccc(C(=O)NCCc3ccccc3)cc2n2c(-c3ccccc3Cl)nnc12` [Compound B-38], in experiment [1], the IC50 was 25.1 nM. Besides, in experiment [2], the PO Dose at Max Effect amounted to 2.5 mg/kg, the “PO Max effect (cumulative agitation score over 60 min)” value was 19 and the PO LAD (lowest active dose) was 2.5 mg/kg. Besides, the IC50 in experiment [3] was 0.724 nM.
`Cc1nc2ccc(CN3CCC(O)CC3)cc2n2c(-c3ccccc3Cl)nnc12` [Compound B-81]: in experiment [1] (setting [4]), the IC50 is 37.2 nM. Further, in experiment [2], the SC Dose at max effect amounted to 10 mg/kg, the “SC Max effect (cumulative agitation score over 60 min)” value is recorded as 19 and the SC LAD (lowest active dose) came to 10 mg/kg. Also, in experiment [3], the IC50 was 9.55 nM.
For the compound `Cc1nc2ccc(C(=O)NCCc3ccccc3)cc2n2c(-c3ccccc3)nnc12` [Compound B-54], the IC50 in experiment [1] is 93.3 nM. Also, in experiment [2], the PO Dose at Max Effect stood at 2.5 mg/kg, the “PO Max effect (cumulative agitation score over 60 min)” value turned out to be 22 and the PO LAD (lowest active dose) was greater than 2.5 mg/kg. In addition, in experiment [3], the IC50 was 3.47 nM.
`CCOc1ccc(Cl)c(-c2nnc3c(C)nc4ccc(OCCc5cccnc5)cc4n23)c1` [Compound B-121]: the IC50 in experiment [1] was 145 nM. Moreover, in experiment [2], the SC Dose at max effect was 10 mg/kg, the “SC Max effect (cumulative agitation score over 60 min)” value is listed as 21 and the SC LAD (lowest active dose) is greater than 10 mg/kg. For the same compound, the IC50 in experiment [3] was 33.9 nM.
On to `Cc1nc2ccc(O)cc2n2c(-c3ccccc3Cl)nnc12` [Compound B-13, 1-(2-Chlorophenyl)-4-methyl[1,2,4]triazolo[4,3-a]quinoxalin-8-ol], for which the IC50 in experiment [1] was 45.7 nM. In experiment [2], the PO Dose at Max Effect amounted to 10 mg/kg, the “PO Max effect (cumulative agitation score over 60 min)” value was 19 and the PO LAD (lowest active dose) is 10 mg/kg. Besides, the IC50 in experiment [3] is 2 nM.
In the case of `Cc1nc2cc(OCCc3ccccn3)ccc2n2c(-c3ccccc3Cl)nnc12` [Compound B-139], the IC50 in experiment [1] is 63.1 nM. Further, in experiment [2], the PO Dose at Max Effect worked out at 10 mg/kg, the “PO Max effect (cumulative agitation score over 60 min)” value is listed as 22 and the PO LAD (lowest active dose) was greater than 10 mg/kg. In addition, the IC50 in experiment [3] is 34.7 nM.
On the same counts, the results for `Cc1ccc(Cl)c(-c2nnc3c(C)nc4ccc(C(=O)NCc5ccccn5)cc4n23)c1` [Compound B-44] are 35.5 nM, 10 mg/kg, 21, greater than 10 mg/kg and 1.78 nM.
Regarding `COc1ccc2nc(C)c3nnc(-c4ccccc4Cl)n3c2c1` [Compound B-5, 1-(2-Chlorophenyl)-8-methoxy-4-methyl[1,2,4]triazolo[4,3-a]quinoxaline], in experiment [1], the IC50 is 25.1 nM. Moreover, in experiment [2], the PO Dose at Max Effect stood at 10 mg/kg, the “PO Max effect (cumulative agitation score over 60 min)” value is given as 21 and the PO LAD (lowest active dose) was greater than 10 mg/kg. Further, the IC50 in experiment [3] is 7.59 nM.
In the same order, the values of `Cc1nc2ccc(C(=O)NCc3cccnc3)cc2n2c(-c3ccccc3)nnc12` [Compound B-56] are 44.7 nM, 10 mg/kg, 21, greater than 10 mg/kg and 3.98 nM.
In the case of `Cc1nc2ccc(OCCN3CCOCC3)cc2n2c(-c3ccccc3Cl)nnc12` [Compound B-113], the IC50 in experiment [1] was 33.1 nM. In experiment [2], the SC Dose at max effect was 10 mg/kg, the “SC Max effect (cumulative agitation score over 60 min)” value is 8 and the SC LAD (lowest active dose) amounted to 10 mg/kg. Besides, the IC50 in experiment [3] was 22.9 nM.
As to `Cc1nc2ccc(NC3CCN(C)CC3)cc2n2c(-c3ccccc3Cl)nnc12` [Compound B-147], the results for the IC50 in experiment [1] and in experiment [3] were 87.1 nM and 44.7 nM, respectively.
On the same counts, the results for `CCCCOc1cncc(-c2nnc3c(C)nc4ccc(CN5CCC(F)CC5)cc4n23)c1` [Compound B-201] are 5130 nM and 95.5 nM.
In the same order, the values of `CCCCOc1ccc(Cl)c(-c2nnc3c(C)nc4ccc(CN5CCN(C)CC5)cc4n23)c1` [Compound B-160] are 2450 nM and 60.3 nM.
In the same order, the values of `Cc1nc2ccc(C(=O)OCCCc3ccccc3)cc2n2c(-c3ccccc3)nnc12` [Compound B-158] are 603 nM and 60.3 nM.
`CCCCOc1ccc(Cl)c(-c2nnc3c(C)nc4ccc(CN5CCC(O)CC5)cc4n23)c1` [Compound B-105]: the IC50 in experiment [1] is 1450 nM; in experiment [3], 19.1 nM.
Consider `CCCOc1ccc(Cl)c(-c2nnc3c(C)nc4ccc(N5CCN(C)CC5)cc4n23)c1` [Compound B-117], for which the values for the IC50 in experiment [1] and in experiment [3] were 912 nM and 25.1 nM, respectively.
